Among the data in patent publication EP2951180B1, “2,6,7,8 SUBSTITUTED PURINES AS HDM2 INHIBITORS” (Merck Sharp & Dohme Corp., priority 2013, dated 2014) are IC50 values, retold here.

One may read the IC50 as the concentration at which inhibition is half-maximal.

T1 sequence (Q00987 17-125): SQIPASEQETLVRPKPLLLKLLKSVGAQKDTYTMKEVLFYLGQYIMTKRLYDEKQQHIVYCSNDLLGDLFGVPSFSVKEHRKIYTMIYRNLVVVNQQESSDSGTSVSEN

The test has as its target T1, HDM2 (Homo sapiens, UniProt Q00987).
T1 construct: Thioredoxin (N); made in house; host or cells: E. coli strain BL21(DE3)Rosetta
The test can be described thus: HDM2 FRET assay (inhibition of binding of FITC labeled p53-pocket peptide to HDM2). Particulars: 0.5 nM HDM2 (residues 17 to 125), 3nM peptide, two hour incubation at room temperature; read-out: FRET IC50. A digest of the protocol: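 Compounds were tested in 10-point serial dilution against 0.5 nM recombinant HDM2 binding 3 nM fluorescein-labeled p53-pocket peptide. Detection used 0.25 nM terbium cryptate anti-6xHis antibody in PBS buffer containing 0.01% BSA and 0.01% Tween-20.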
For `Cc1cccc(-c2nc(C(=O)O)nc3nc(-c4cc(C(C)C)ccn4)n(C[C@H]4CC[C@H](C)CC4)c23)c1` [Example 16.14, 7-[(trans-4-methylcyclohexyl)methyl]-8-[4-(1-methylethyl)pyridin-2-yl]-6-(3-methylphenyl)-7H-purine-2-carboxylic acid], the IC50 was found to be 35.5 nM. Consider `Cc1cccc(-c2nc(-c3noc(=O)[nH]3)nc3nc(-c4cc(C(C)C)ccn4)n(C[C@H]4CC[C@H](C)CC4)c23)c1` [Example 16.15, 3-{7-[(trans-4-methylcyclohexyl)methyl]-8-[4-(1-methylethyl)pyridin-2-yl]-6-(3-methylphenyl)-7H-purin-2-yl}-1,2,4-oxadiazol-5(4H)-one], for which the IC50 came out at 30 nM.

Regarding `CC(C)c1ccnc(-c2nc3nc(-c4noc(=O)[nH]4)nc(-c4cccc(Cl)c4)c3n2C[C@H]2CC[C@H](C)CC2)c1` [Example 16.16, 3-{6-(3-chlorophenyl)-7-[(trans-4-methylcyclohexyl)methyl]-8-[4-(1-methylethyl)pyridin-2-yl]-7H-purin-2-yl}-1,2,4-oxadiazol-5(4H)-one], the IC50 came to 11.4 nM.

Consider `Cc1cccc(-c2nc(-c3noc(=O)[nH]3)nc3nc(N4CCOC[C@H]4c4ccccc4)n(C[C@H]4CC[C@H](C)CC4)c23)c1` [Example 16.17, 3-{7-[(trans-4-methylcyclohexyl)methyl]-6-(3-methylphenyl)-8-[(3R)-3-phenylmorpholin-4-yl]-7H-purin-2-yl}-1,2,4-oxadiazol-5(4H)-one], for which the IC50 came out at 3.96 nM. On to `C[C@H]1CC[C@H](Cn2c(N3CCOC[C@H]3c3ccccc3)nc3nc(-c4noc(=O)[nH]4)nc(-c4cccc(Cl)c4)c32)CC1` [Example 16.18, 3-{6-(3-chlorophenyl)-7-[(trans-4-methylcyclohexyl)methyl]-8-[(3R)-3-phenylmorpholin-4-yl]-7H-purin-2-yl}-1,2,4-oxadiazol-5(4H)-one], for which the IC50 worked out at 1.27 nM. In the case of `C[C@H]1CC[C@H](Cn2c(N3CCOC[C@H]3c3ccccc3)nc3nc(-c4noc(=O)[nH]4)nc(-c4cc(Cl)cc(Cl)c4)c32)CC1` [Example 16.19, 3-{6-(3,5-dichlorophenyl)-7-[(trans-4-methylcyclohexyl)methyl]-8-[(3R)-3-phenylmorpholin-4-yl]-7H-purin-2-yl}-1,2,4-oxadiazol-5(4H)-one] it was 0.995 nM; in that of `C[C@H]1CC[C@H](Cn2c(N3CCOC[C@H]3c3ccccc3)nc3nc(-c4noc(=O)[nH]4)nc(-c4cc(F)cc(Cl)c4)c32)CC1` [Example 16.20, 3-{6-(3-chloro-5-fluorophenyl)-7-[(trans-4-methylcyclohexyl)methyl]-8-[(3R)-3-phenylmorpholin-4-yl]-7H-purin-2-yl}-1,2,4-oxadiazol-5(4H)-one], 1.21 nM; in that of `C[C@H]1CC[C@H](Cn2c(N3CCOC[C@H]3c3ccccc3)nc3nc(-c4n[nH]c(=O)o4)nc(-c4cccc(Cl)c4)c32)CC1` [Example 16.21, 5-{6-(3-chlorophenyl)-7-[(trans-4-methylcyclohexyl)methyl]-8-[(3R)-3-phenylmorpholin-4-yl]-7H -purin-2-yl}-1,3,4-oxadiazol-2(3H)-one], 2.25 nM. Turning to `C[C@H]1CC[C@H](Cn2c(N3CCOC[C@H]3c3ccccc3)nc3nc(C(=O)O)nc(-c4cccc(Cl)c4)c32)CC1` [Example 16.22, 6-(3-chlorophenyl)-7-[(trans-4-methylcyclohexyl)methyl]-8-[(3R)-3-phenylmorpholin-4-yl]-7H-purine-2-carboxylic acid], the IC50 was 0.68 nM. With `C[C@H]1CC[C@H](Cn2c(N3CCOC[C@H]3c3ccccc3)nc3nc(-c4noc(=O)[nH]4)nc(-c4cccc(Cl)c4F)c32)CC1` [Example 16.23, 3-{6-(3-chloro-2-fluorophenyl)-7-[(trans-4-methylcyclohexyl)methyl]-8-[(3R)-3-phenylmorpholin-4-yl]-7H-purin-2-yl}-1,2,4-oxadiazol-5(4H)-one], the IC50 came to 1.44 nM.

As for `C[C@H]1CC[C@H](Cn2c(N3CCOC[C@H]3c3ccccc3)nc3nc(-c4noc(=O)[nH]4)nc(-c4ccc(F)c(Cl)c4)c32)CC1` [Example 16.24, 3-{6-(3-chloro-4-fluorophenyl)-7-[(trans-4-methylcyclohexyl)methyl]-8-[(3R)-3-phenylmorpholin-4-yl]-7H-purin-2-yl}-1,2,4-oxadiazol-5(4H)-one], the IC50 turned out to be 5.62 nM. Regarding `C[C@H]1CC[C@H](Cn2c(N3CCOC[C@H]3c3ccccc3)nc3nc(-c4noc(=O)[nH]4)nc(-c4cc(Cl)ccc4F)c32)CC1` [Example 16.25, 3-{6-(5-chloro-2-fluorophenyl)-7-[(trans-4-methylcyclohexyl)methyl]-8-[(3R)-3-phenylmorpholin-4-yl]-7H-purin-2-yl} -1,2,4-oxadiazol-5(4H)-one], the IC50 came to 1.63 nM.

Take `C[C@H]1CC[C@H](Cn2c(N3CCOC[C@H]3c3ccccc3)nc3nc(-c4noc(=O)[nH]4)nc(-c4cncc(Cl)c4)c32)CC1` [Example 16.26, 3-{6-(5-chloropyridin-3-yl)-7-[(trans-4-methylcyclohexyl)methyl]-8-[(3R)-3-phenylmorpholin-4-yl]-7H-purin-2-yl}-1,2,4-oxadiazol-5(4H)-one]: the IC50 amounted to 0.517 nM. The value for `Cc1cccc(-c2nc(-c3noc(=O)[nH]3)nc3nc(N4CCOCC4)n(C[C@H]4CC[C@H](C)CC4)c23)c1` [Example 16.27, 3-{7-[(trans-4-methylcyclohexyl)methyl]-6-(3-methylphenyl)-8-morpholin-4-yl-7H-purin-2-yl}-1,2,4-oxadiazol-5(4H)-one] was 334 nM; that for `Cc1cccc(-c2nc(-c3noc(=O)[nH]3)nc3nc(N4CCOC[C@H]4C)n(C[C@H]4CC[C@H](C)CC4)c23)c1` [Example 16.28, 3-{7-[(trans-4-methylcyclohexyl)methyl]-8-[(3R)-3-methylmorpholin-4-yl]-6-(3-methylphenyl)-7H-purin-2-yl}-1,2,4-oxadiazol-5(4H)-one] was 38.7 nM.

With `CC1(C)COCCN1c1nc2nc(-c3noc(=O)[nH]3)nc(-c3cccc(Cl)c3)c2n1C[C@H]1CC[C@H](C)CC1` [Example 16.29, 3-{6-(3-chlorophenyl)-8-(3,3-dimethylmorpholin-4-yl)-7-[(trans-4-methylcyclohexyl)methyl]-7H-purin-2-yl}-1,2,4-oxadiazol-5(4H)-one], the IC50 turned out to be 5.2 nM. `CCc1cccc(-c2nc(-c3noc(=O)[nH]3)nc3nc(N4CCOC[C@H]4c4ccccc4)n(C[C@H]4CC[C@H](C)CC4)c23)c1` [Example 16.30, 3-{6-(3-ethylphenyl)-7-[(trans-4-methylcyclohexyl)methyl]-8-[(3R)-3-phenylmorpholin-4-yl]-7H-purin-2-yl}-1,2,4-oxadiazol-5(4H)-one]: the IC50 was determined as 2.77 nM. Regarding `C[C@H]1CC[C@H](Cn2c(N3CCOC[C@H]3c3ccccc3)nc3nc(-c4noc(=O)[nH]4)nc(-c4cccc(C(F)F)c4)c32)CC1` [Example 16.31, 3-{6-[3-(difluoromethyl)phenyl]-7-[(trans-4-methylcyclohexyl)methyl]-8-[(3R)-3-phenylmorpholin-4-yl]-7H-purin-2-yl}-1,2,4-oxadiazol-5(4H)-one], the IC50 was found to be 7.11 nM. For the molecule `Cc1cccc(-c2nc(-c3n[nH]c(=O)o3)nc3nc(N4CCOC[C@H]4C)n(C[C@H]4CC[C@H](C)CC4)c23)c1` [Example 16.32, 5-{7-[(trans-4-methylcyclohexyl)methyl]-8-[(3R)-3-methylmorpholin-4-yl]-6-(3-methylphenyl)-7H-purin-2-yl} -1,3,4-oxadiazol-2(3H)-one], the IC50 was found to be 60.5 nM.

`C[C@H]1CC[C@H](Cn2c(N3CCOCC3)nc3nc(-c4n[nH]c(=O)o4)nc(-c4cccc(Cl)c4)c32)CC1` [Example 16.33, 5-{6-(3-chlorophenyl)-7-[(trans-4-methylcyclohexyl)methyl]-8-morpholin-4-yl-7H-purin-2-yl}-1,3,4-oxadiazol-2(3H)-one]: the IC50 was determined as 163 nM. Turning to `Cc1cccc(-c2nc(-c3noc(=O)[nH]3)nc3nc(N4CCOC[C@@H]4C)n(C[C@H]4CC[C@H](C)CC4)c23)c1` [Example 16.34, 3-{7-[(trans-4-methylcyclohexyl)methyl]-8-[(3S)-3-methylmorpholin-4-yl]-6-(3-methylphenyl)-7H-purin-2-yl}-1,2,4-oxadiazol-5(4H)-one], the half-maximal inhibitory concentration (IC50) was found to be 503 nM.

Regarding `C[C@H]1CC[C@H](Cn2c(N3CCOC[C@H]3c3ccccc3)nc3nc(-c4n[nH]c(=O)o4)nc(-c4cncc(Cl)c4)c32)CC1` [Example 16.35, 5-{6-(5-chloropyridin-3-yl)-7-[(trans-4-methylcyclohexyl)methyl]-8-[(3R)-3-phenylmorpholin-4-yl]-7H-purin-2-yl} -1,3,4-oxadiazol-2(3H)-one], the IC50 turned out to be 0.824 nM. Consider `CC(C)(O)c1ccnc(-c2nc3nc(-c4noc(=O)[nH]4)nc(-c4cccc(Cl)c4)c3n2C[C@H]2CC[C@H](C)CC2)c1` [Example 16.36, 3-{6-(3-chlorophenyl)-8-[4-(1-hydroxy-1-methylethyl)pyridin-2-yl]-7-[(trans-4-methylcyclohexyl)methyl]-7H-purin-2-yl}-1,2,4-oxadiazol-5(4H)-one], for which the IC50 was found to be 26.2 nM. As to `Cc1cccc(-c2nc(-c3n[nH]c(=O)o3)nc3nc(N4CCOC[C@@H]4C)n(C[C@H]4CC[C@H](C)CC4)c23)c1` [Example 16.37, 5-{7-[(trans-4-methylcyclohexyl)methyl]-8-[(3S)-3-methylmorpholin-4-yl]-6-(3-methylphenyl)-7H-purin-2-yl} -1,3,4-oxadiazol-2(3H)-one], the IC50 is 1000 nM. On to `C[C@H]1CC[C@H](Cn2c(N[C@@H](CO)c3ccccc3)nc3nc(-c4noc(=O)[nH]4)nc(-c4cccc(Cl)c4)c32)CC1` [Example 16.38, 3-{6-(3-chlorophenyl)-8-{[(1R)-2-hydroxy-1-phenylethyl]amino}-7-[(trans-4-methylcyclohexyl)methyl]-7H-purin-2-yl}-1,2,4-oxadiazol-5(4H)-one], for which the IC50 is 1.95 nM.
